Measurements taken from patent US20240174596A1 (Northwestern University, priority 2021, published 2024).
Counter-ions that a name gives are not always drawn.

Target: Ala-AT (Sus scrofa, UniProt P13191)
Experiment: Inhibition of Ala-AT
Assay type: biochemical, porcine
Conditions: up to 10 mM
Description: All reagents for enzyme purification and assays were purchased from Sigma-Aldrich (St. Louis, MO, USA). […] All the enzyme assays for the inactivation, partition ratio, and dialysis experiment were recorded on a Synergy H1 hybrid multimode microplate reader (Biotek, USA) with transparent 96-well plates.
potassium phosphate at pH 7.4, 5.55 mM α-ketoglutarate, 1.11 mM NADH, 5.55 mM […], 5.55 units of malic dehydrogenase, and various concentrations of SS-1-148. […] The plate was shaken at room temperature for 1 min, and the absorbance was measured at 340 nm every 10 s for 90 min based on the conversion of NADH to NAD^+. The remaining Asp-AT activity percentage was calculated according to the corresponding concentrations. […]

Chain of Ala-AT (P13191 whole entry): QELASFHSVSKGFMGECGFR

## N[C@H]1C=C(C(=O)O)CC1(F)F [SS-1-148, (S)-3-Amino-4,4-difluorocyclopent-1-enecarboxylic acid hydrochloric acid salt]
  inhibition on Ala-AT: did not show noticeable inhibition
